Test results from PubChem BioAssay AID1259407 (Chemical Carcinogenesis Research Information System (CCRIS), 2018).
Calls of active or inactive are those of the source. The rule behind the calls is not given here.

Test system: CCRIS mutagenicity, Ames/micronucleus/aberration tests
Experiment: CCRIS mutagenicity studies
Details: Test System: AMES SALMONELLA TYPHIMURIUM

Measured: mutagenic call

C=CC(=O)OCCCCCCOC(=O)C=C
inactive: Strain/Indicator: TA97, Metabolic Activation: HAMSTER, LIVER, S-9, AROCLOR 1254 (10%), Method: PREINCUBATION inactive; negative | Strain/Indicator: TA97, Metabolic Activation: HAMSTER, LIVER, S-9, AROCLOR 1254 (30%), Method: PREINCUBATION inactive; negative | Strain/Indicator: TA97, Metabolic Activation: NONE, Method: PREINCUBATION inactive; negative | Strain/Indicator: TA97, Metabolic Activation: RAT, LIVER, S-9, AROCLOR 1254 (10%), Method: PREINCUBATION inactive; negative | Strain/Indicator: TA97, Metabolic Activation: RAT, LIVER, S-9, AROCLOR 1254 (30%), Method: PREINCUBATION inactive; negative | Strain/Indicator: TA98, Metabolic Activation: HAMSTER, LIVER, S-9, AROCLOR 1254 (10%), Method: PREINCUBATION inactive; negative | Strain/Indicator: TA98, Metabolic Activation: HAMSTER, LIVER, S-9, AROCLOR 1254 (30%), Method: PREINCUBATION inactive; negative | Strain/Indicator: TA98, Metabolic Activation: NONE, Method: PREINCUBATION inactive; negative | Strain/Indicator: TA98, Metabolic Activation: NONE, Method: STANDARD PLATE inactive; negative | Strain/Indicator: TA98, Metabolic Activation: RAT, LIVER, S-9, AROCLOR 1254 (10%), Method: PREINCUBATION inactive; negative | Strain/Indicator: TA98, Metabolic Activation: RAT, LIVER, S-9, AROCLOR 1254 (30%), Method: PREINCUBATION inactive; negative | Strain/Indicator: TA98, Metabolic Activation: RAT, LIVER, S-9, AROCLOR 1254, Method: STANDARD PLATE inactive; negative | Strain/Indicator: TA98, Metabolic Activation: RAT, LIVER, S-9, SODIUM PHENOBARBITAL, Method: STANDARD PLATE inactive; negative | Strain/Indicator: TA100, Metabolic Activation: HAMSTER, LIVER, S-9, AROCLOR 1254 (10%), Method: PREINCUBATION inactive; negative | Strain/Indicator: TA100, Metabolic Activation: HAMSTER, LIVER, S-9, AROCLOR 1254 (30%), Method: PREINCUBATION inactive; negative | Strain/Indicator: TA100, Metabolic Activation: NONE, Method: PREINCUBATION inactive; negative | Strain/Indicator: TA100, Metabolic Activation: NONE, Method: STANDARD PLATE inactive; negative | Strain/Indicator: TA100, Metabolic Activation: RAT, LIVER, S-9, AROCLOR 1254 (10%), Method: PREINCUBATION inactive; negative | Strain/Indicator: TA100, Metabolic Activation: RAT, LIVER, S-9, AROCLOR 1254 (30%), Method: PREINCUBATION inactive; negative | Strain/Indicator: TA100, Metabolic Activation: RAT, LIVER, S-9, AROCLOR 1254, Method: STANDARD PLATE inactive; negative | Strain/Indicator: TA100, Metabolic Activation: RAT, LIVER, S-9, SODIUM PHENOBARBITAL, Method: STANDARD PLATE inactive; negative | Strain/Indicator: TA1535, Metabolic Activation: HAMSTER, LIVER, S-9, AROCLOR 1254 (10%), Method: PREINCUBATION inactive; negative | Strain/Indicator: TA1535, Metabolic Activation: HAMSTER, LIVER, S-9, AROCLOR 1254 (30%), Method: PREINCUBATION inactive; negative | Strain/Indicator: TA1535, Metabolic Activation: NONE, Method: PREINCUBATION inactive; negative | Strain/Indicator: TA1535, Metabolic Activation: NONE, Method: STANDARD PLATE inactive; negative | Strain/Indicator: TA1535, Metabolic Activation: RAT, LIVER, S-9, AROCLOR 1254 (10%), Method: PREINCUBATION inactive; negative | Strain/Indicator: TA1535, Metabolic Activation: RAT, LIVER, S-9, AROCLOR 1254 (30%), Method: PREINCUBATION inactive; negative | Strain/Indicator: TA1535, Metabolic Activation: RAT, LIVER, S-9, AROCLOR 1254, Method: STANDARD PLATE inactive; negative | Strain/Indicator: TA1535, Metabolic Activation: RAT, LIVER, S-9, SODIUM PHENOBARBITAL, Method: STANDARD PLATE inactive; negative | Strain/Indicator: TA1537, Metabolic Activation: HAMSTER, LIVER, S-9, AROCLOR 1254 (10%), Method: PREINCUBATION inactive; negative | Strain/Indicator: TA1537, Metabolic Activation: NONE, Method: PREINCUBATION inactive; negative | Strain/Indicator: TA1537, Metabolic Activation: NONE, Method: STANDARD PLATE inactive; negative | Strain/Indicator: TA1537, Metabolic Activation: RAT, LIVER, S-9, AROCLOR 1254 (10%), Method: PREINCUBATION inactive; negative | Strain/Indicator: TA1537, Metabolic Activation: RAT, LIVER, S-9, AROCLOR 1254, Method: STANDARD PLATE inactive; negative | Strain/Indicator: TA1537, Metabolic Activation: RAT, LIVER, S-9, SODIUM PHENOBARBITAL, Method: STANDARD PLATE inactive; negative | Strain/Indicator: TA1538, Metabolic Activation: NONE, Method: STANDARD PLATE inactive; negative | Strain/Indicator: TA1538, Metabolic Activation: RAT, LIVER, S-9, AROCLOR 1254, Method: STANDARD PLATE inactive; negative | Strain/Indicator: TA1538, Metabolic Activation: RAT, LIVER, S-9, SODIUM PHENOBARBITAL, Method: STANDARD PLATE inactive; negative
